The experiment has as its system CEM cells HIV-1 protection, formazan growth assay. The experiment is described as follows: NCI AIDS Antiviral Assay. As to conditions: for IC50: measured here: growth of uninfected CEM cells. Put shortly:
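Category rules: moderately active means at least 50% protection on retest, and confirmed active means 100% protection reproducibly. The underlying data came from a formazan growth assay in HIV-1-infected CEM cells.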

The source made the active and inactive calls.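 The calls were made as follows: active = compounds giving half or more protection of infected cells from virus-caused growth loss, again on retest; inactive = the rest.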 *1 amine or outer side, *2 acyl side, *3 side chain or, on linkers, in order; H or OH if unused. Where a SMILES comes first, the peptide text is derived from it. Bridges are numbered along the chain shown (N, C = ends). [ ]: non-standard residue; d: D form. The star is where a group is joined. X22 = CC(C)C(C)C(C(=O)[*:2])N(C)[*:1]; Picolinoyl(3-OH) = O=C(c1ncccc1O)*; NMePhg = CN[CH](C(=O)O)c1ccccc1; Hyp = O=C(O)[CH]1C[CH](O)CN1; Sar = CNCC(=O)O

On to `C[C@@H](NC(=O)c1ccccc1SC(=O)CCCC[n+]1ccccc1)C(N)=O`, for which the concentration for a half-maximal effect (EC50) is 0.741 µM and the IC50 stood at 105 µM.
As to `CCOC(=O)C1C(=O)CC2c3nc4ccccc4cc3CN2C1=O` (stereo not given), the EC50 is more than 10 µM and the IC50 was more than 10 µM.
With `Nc1ccccc1-c1nc2ccncc2[nH]1`, the EC50 is more than 851 µM and the IC50 stood at 302 µM.
Regarding `CC(O)c1ccc2c(c1)C(O)C[C@H]1[C@](C)(CO)CCC[C@]21C` (stereo not given in full), the EC50 was more than 200 µM and the half-maximal inhibitory concentration (IC50) stood at 141 µM.
On to `COc1ccccc1-n1c(C)nc2ccccc2c1=O`, for which the EC50 is more than 186 µM and the IC50 was more than 186 µM.
As for `O=C1/C(=C/c2cccc([N+](=O)[O-])c2)CCCc2ccccc21`, the EC50 was more than 200 µM and the IC50 stood at 6.31 µM.
`COc1ccc2c(O)c(-c3ccc(OC)c(OC)c3)c(=O)oc2c1`: the result was inactive.
`CC(c1ccccc1)C(O)S(=O)(=O)O` (stereo not given): the outcome was inactive.
Consider `COC1O[C@H]2[C@H]3[C@@H]1[C@@H](OS(=O)(=O)c1ccc(C)cc1)C(=O)N3C[C@H]2O` (stereo not given in full), for which the EC50 was 18.2 µM and the IC50 worked out at 141 µM.
Consider `Cc1nc2ccc(S(=O)(=O)Nc3nccs3)cc2c(=O)n1NS(=O)(=O)c1nccs1`, for which the EC50 is more than 200 µM and the IC50 was found to be 49 µM.
With `CN(C)c1ccc(/C=C(\C#N)c2ccccc2Cl)cc1`, the concentration giving a half-maximal response (EC50) is more than 15.8 µM and the concentration for half-maximal inhibition (IC50) is 4.47 µM.
As for `Cc1ccc(S(=O)(=O)n2nc(Oc3ccc(Cl)c(Cl)c3)nc2N)cc1`, the EC50 is more than 3.63 µM and the IC50 was more than 3.63 µM.
As for `O=c1c2cc([N+](=O)[O-])cnc2sn1-c1ccc([N+](=O)[O-])cc1`, the EC50 was more than 200 µM and the IC50 was 63.1 µM.
For the compound `CCOC(=O)CC[C@H](NC(=O)N[C@H](C)c1ccccc1)C(=O)OCC`, the EC50 is more than 200 µM and the IC50 came to 39.8 µM.
As for `C=C(C)C(=O)OC1CC2=CC(CC3(C)OC3C3OC(=O)C(=C)C13)OC2=O` (stereo not given), the EC50 is more than 200 µM and the IC50 was determined as 2.4 µM.
Regarding `Cc1cc(C=C2C(=O)NC(=S)NC2=O)c(C)n1-c1ccccc1`, the EC50 was more than 6.17 µM and the IC50 was more than 6.17 µM.
`COC(=O)C(Cc1c[nH]c2ccccc12)NP(=O)(O)OCC1OC(n2cc(I)c(=O)[nH]c2=O)CC1O` (stereo not given): the EC50 was more than 200 µM and the half-maximal inhibitory concentration (IC50) was more than 200 µM.
For `Cc1ccc(S(=O)CC(CF)OCn2cc(C)c(=O)[nH]c2=O)cc1` (stereo not given), the result was inactive.
Consider `CCOc1cc2c(cc1C(C)c1ccc(OC)cc1)OCO2` (stereo not given), for which the EC50 was more than 33.1 µM and the IC50 turned out to be 0.214 µM.
Take `[Cu+2].[O-]/N=C/c1ccc(O)c(O)c1[O-].[O-]/N=C/c1ccc(O)c(O)c1[O-]`: the result was inactive.
For the compound `COC(=O)CC[C@@H](C)C1CCC2(C)c3ccc4c(c3C(=O)C[C@]12C)CC[C@H](OC(C)=O)C4(C)C` (stereo not given in full), the EC50 was more than 100 µM and the IC50 was more than 100 µM.
Regarding `C=C1C(=O)[C@@]23CC1C(O)[C@@H](OC(C)=O)[C@@H]2C1(C)C(OC(C)=O)C[C@@H](OC(C)=O)C(C)(C)[C@@H]1C[C@H]3OC(C)=O` (stereo not given in full), the EC50 is more than 200 µM and the half-maximal inhibitory concentration (IC50) came to 0.851 µM.
`CC(C)(C)C(=O)O[C@H]1C=C[C@@H](O)[C@@H]2[C@H]1[C@@H]1C=C[C@H]2C1`: the EC50 was more than 200 µM and the IC50 was determined as 22.9 µM.
Consider `CCC(C)C(C1=C(O)c2ccccc2C(=O)C1=O)C1=C(O)c2ccccc2C(=O)C1=O` (stereo not given), for which the EC50 was more than 200 µM and the IC50 came to 87.1 µM.
For `Cc1ccc(C=C(C(=O)O)C(=O)O)cc1` the same measures were more than 1200 µM and more than 1200 µM.
For `CN(CC1NCCCC1O)C12CC3CC(CC(C3)C1)C2` (stereo not given), the EC50 was more than 891 µM and the IC50 was more than 891 µM.
As for `O=C1Cc2csc3nc(=O)cc(n23)N1`, the EC50 is more than 120 µM and the IC50 was more than 120 µM.
As to `Nc1ncc(CN2CCOCC2)c(-c2ccccc2O)n1`, the EC50 was more than 200 µM and the 50% inhibitory concentration (IC50) is more than 200 µM.
For the compound `OC1C2CN3CCN(C2)CC1(c1ccccc1)C3` (stereo not given), the EC50 was more than 200 µM and the IC50 is more than 200 µM.
For the compound `NC(=Nc1ccccc1)N/N=C/c1c[nH]c2ccccc12`, the EC50 is more than 380 µM and the IC50 stood at 0.224 µM.
Consider `COc1c(Cl)cc(C(=CCC(=O)N[C@@H]2CC[C@@]3(C)[C@@H](CC[C@@H]4[C@@H]3CC[C@]3(C)[C@@H]([C@H](C)CCCC(C)C)CC[C@@H]43)C2)c2cc(Cl)c(OC)c(C(=O)O)c2)cc1C(=O)O`, for which the EC50 is more than 200 µM and the IC50 was determined as 10.2 µM.
For the compound `O=C(Cc1ccccc1)N/N=C(/c1nc2ccc([N+](=O)[O-])cc2[nH]c1=O)C(O)c1ccco1` (stereo not given), the EC50 is more than 209 µM and the IC50 was more than 209 µM.
Consider `COC1(C(C)(C)C)C=C(C(C)(C)C)P(=O)(O)O1` (stereo not given), for which the EC50 is more than 200 µM and the IC50 was more than 200 µM.
Take `COc1cc(C2=C(c3cc(OC)c4ccccc4c3OC)C(=O)c3ccccc3C2=O)c(OC)c2ccccc12`: the EC50 was more than 100 µM and the IC50 is more than 100 µM.
Take `CC(CCc1nc2ccccc2o1)C1CCC2C3CC[C@@H]4C[C@H](O)CC[C@]4(C)C3C[C@H](O)[C@]12C` (stereo not given in full): the EC50 is more than 50.1 µM and the IC50 is 7.24 µM.
As to `COc1ccc(/C=C/c2cc(OC)c(OC)c(OC)c2)cc1O`, the EC50 was more than 10 µM and the IC50 worked out at 0.145 µM.
The matching figures for `c1ccc(CSP234N5CCN2CCN3CCN4CC5)c(CSP234N5CCN2CCN3CCN4CC5)c1`: more than 100 µM and 39.8 µM.
With `O=C(CCN1CCCCC1CCO)Nc1ccc2c(c1)C(=O)c1ccc(NC(=O)CCN3CCCCC3CCO)cc1C2=O` (stereo not given), the EC50 was more than 200 µM and the IC50 stood at 2.63 µM.
The matching figures for `CN(C(=O)C12C3C4C5C3C1(C(=O)C13C6C7C8C6C1C8C73)C5C42)C(C)(C)C` (stereo not given): more than 135 µM and more than 135 µM.
Take `COc1ccccc1NC(=O)CC(=O)n1nc(-c2ccccc2)c(N=Nc2ccccc2[N+](=O)[O-])c1-c1ccccc1`: the EC50 is more than 33.9 µM and the IC50 was more than 33.9 µM.
For `CCOC(=O)/C(C#N)=C/c1cccc(Br)c1`, the result was inactive.
For the compound `CC1=C(\C=C/C(C)=C/C=C/C(C)=C/C=N/N=C/C=C(C)\C=C\C=C(C)/C=C/C2=C(C)CCCC2(C)C)C(C)(C)CCC1`, the EC50 is more than 200 µM and the IC50 came out at 45.7 µM.
Consider `CC(C)CC1NC(=O)C(NC(=O)c2ncccc2O)C(C)OC(=O)C(c2ccccc2)N(C)C(=O)C(C)NC(=O)C(C(C)C(C)C)N(C)C(=O)CN(C)C(=O)C2CC(O)CN2C1=O` (stereo not given) ({Picolinoyl(3-OH)}-TL[Hyp][Sar][X22]A[NMePhg]; ester 1-C; configuration not given here), for which the result was inactive.
Same read-out and setting: the entry for `CN1Cc2c(N)cccc2C(c2ccccc2)C1` (stereo not given) is “inactive”; for `COC(=O)c1cccc2c3ccccc3c3ccccc3c12` it is “inactive”.
`COc1cc(OC)c2nc3ccccc3c(NCCC[N+](C)(C)[O-])c2c1[N+](=O)[O-]`: the EC50 was more than 200 µM and the IC50 came to 132 µM.
Regarding `CCCCCC=C(c1cc(Br)cc(C(=O)O)c1O)c1cc(Br)cc(C(=O)O)c1O`, the half-maximal effective concentration (EC50) was more than 166 µM and the IC50 was determined as 15.8 µM.
With `CCO/C=C1\N=C(c2ccc(Cl)c(Cl)c2)OC1=O`, the EC50 was more than 126 µM and the IC50 was more than 126 µM.
On to `COc1cccc(C(C#N)NC23CC4CC(CC(C4)C2)C3)c1` (stereo not given), for which the outcome was inactive.
On to `Cc1nn(C(=O)Cc2ccccc2)c2c1C(c1ccc(/C=C/c3ccccc3)cc1)SC(N)=N2` (stereo not given), for which the EC50 is 148 µM and the IC50 is more than 200 µM.
On to `O=c1ccc(-c2ccc(-n3ccnc3)cc2)nn1CCO`, for which the EC50 was more than 200 µM and the IC50 was more than 200 µM.
With `C=C1CN(S(=O)(=O)c2ccc(C)cc2)CCCN(Cc2ccc(C)o2)CCCN(S(=O)(=O)c2ccc(C)cc2)C1`, the EC50 is more than 200 µM and the IC50 was more than 200 µM.
`COc1ccc(-n2nnnc2C2(Nc3ccccc3)CCN(Cc3ccccc3)CC2)cc1`: the EC50 was more than 200 µM and the IC50 was more than 200 µM.
In the case of `CN1Cc2cc(O)c(O)cc2C(O)C1` (stereo not given), the EC50 is more than 200 µM and the IC50 was found to be 102 µM.
The matching figures for `O=c1oc2ccccc2cc1/C=N/N1C(=S)N(c2ccccc2)C(=Nc2ccccc2)C1=Nc1ccccc1`: more than 200 µM and more than 200 µM.
Regarding `COC(=O)c1cc(C(c2cc(C(=O)OC)c(OC)c(Br)c2C)C(Cl)Cl)c(C)c(Br)c1OC`, the EC50 is more than 200 µM and the IC50 came to 10 µM.
Turning to `COc1ccc(N2C(=O)c3c(c4[nH]c5ccccc5c4c4ccc(C(C)(C)C)cc34)C2=O)cc1`, the EC50 is more than 11.5 µM and the IC50 is more than 11.5 µM.
As to `Cc1ccccc1NC(=O)C(=O)Cc1nc2ccccc2s1`, the EC50 is more than 12 µM and the half-maximal inhibitory concentration (IC50) is more than 12 µM.
Regarding `Nc1nsc2nc3ccccc3cc12`, the outcome was inactive.
Regarding `CC1(C)C2CCC(CN=C(N)CSS(=O)(=O)O)C1C2` (stereo not given), the EC50 is more than 200 µM and the IC50 was 33.1 µM.
Regarding `C=CC1=C(C)C2=NC1=CC1=NC(=CC3=C(C)C4=C(O)C(C(=O)O)C(=C5NC(=C2)C(C)C5CCC(=O)O)C4=N3)C(CC)=C1C` (stereo not given), the EC50 is more than 39.8 µM and the IC50 is more than 39.8 µM.
`COc1cc(CO)c(C2OC(CO)C(O)C2O)c(OC)c1` (stereo not given): the result was inactive.
Take `O=Nc1c(-c2ccccc2)nc2ncccn12`: the EC50 was more than 200 µM and the half-inhibitory concentration (IC50) was found to be 2.14 µM.
The matching figures for `Cc1nnc2sc(N/N=C/c3ccccc3)nn12`: more than 200 µM and more than 200 µM.
For `CC1(C)CC[C@]2(C(=O)OC3OC(CO)C(O)C(O)C3O)CCC3(C)C(=CCC4[C@@]5(C)C[C@H](O)[C@H](OC6OC(CO)C(O)C(O)C6O)[C@@](C)(C(=O)O)C5CC[C@]43C)C2C1` (stereo not given in full), the EC50 was more than 191 µM and the IC50 was more than 191 µM.
For the compound `N/N=C(/Cc1ccccc1)NNO`, the EC50 was more than 525 µM and the IC50 is 174 µM.
Take `Clc1cc2c(c(CSc3nc4ccccc4n4cccc34)c1)OCOC2`: the EC50 was more than 13.5 µM and the IC50 was more than 13.5 µM.
For the compound `CN=C(/N=c1\ssc(=NC)n1C)N(C)C`, the EC50 is more than 70.8 µM and the IC50 was determined as 50.1 µM.

As a reminder, the EC50 is the midpoint of the concentration-response curve. What is called IC50 is the point on the concentration scale where inhibition reaches its midpoint. A higher IC50 goes with weaker potency.

The values above are taken from PubChem BioAssay AID179 (DTP/NCI, 2004).
